Laboratory results reported in ChEMBL document CHEMBL3885881, “DrugMatrix”.

Species on record: Rattus norvegicus
Experiment: DrugMatrix - Regimen: Daily Repeat
Type: toxicity, organism-based, Sprague-Dawley
Parameters: regimen Daily Repeat, gender Male, age 6-8 weeks
Settings: in vivo, po, route oral GAVAGE, vehicle 100 % SALINE; for ABSOLUTE BASOPHIL / ABSOLUTE EOSINOPHIL / ABSOLUTE LYMPHOCYTE / ABSOLUTE MONOCYTE / ABSOLUTE SEGMENTED NEUTROPHIL / BASOPHIL / EOSINOPHIL / ERYTHROCYTE COUNT / HEMATOCRIT / HEMOGLOBIN / LEUKOCYTE COUNT / MEAN CORPUSCULAR HEMOGLOBIN / MEAN CORPUSCULAR HEMOGLOBIN CONCENTRATION / MEAN CORPUSCULAR VOLUME / MONOCYTE / NEUTROPHIL / NUCLEATED RED BLOOD CELLS / PLATELET COUNT: tissue Blood; for ALANINE AMINOTRANSFERASE / ALBUMIN / ALKALINE PHOSPHATASE / ASPARTATE AMINOTRANSFERASE / BLOOD UREA NITROGEN / CARBON DIOXIDE / CHLORIDE / CHOLESTEROL / CREATINE PHOSPHOKINASE / CREATININE / GLUCOSE / LACTATE DEHYDROGENASE / LIPASE / PHOSPHORUS / POTASSIUM / SODIUM / TOTAL BILIRUBIN / TOTAL PROTEIN / URIC ACID: tissue Plasma
[1] = 40 mg/kg, 120 h, dose level Low, time 5 day
[2] = 195 mg/kg, 72 h, dose level High, time 3 day
[3] = 195 mg/kg, 120 h, dose level High, time 5 day

SMILES: Oc1ccccc1O [CATECHOL]
- ABSOLUTE BASOPHIL [1]: 0 CELLS/uL
- ABSOLUTE EOSINOPHIL [1]: 30.67 CELLS/uL
- ABSOLUTE LYMPHOCYTE [1]: 8416.67 CELLS/uL
- ABSOLUTE MONOCYTE [1]: 0 CELLS/uL
- ABSOLUTE SEGMENTED NEUTROPHIL [1]: 952.67 CELLS/uL
- BASOPHIL [1]: 0%
- EOSINOPHIL [1]: 0.33%
- ERYTHROCYTE COUNT [1]: 5.53 x10E6/uL
- HEMATOCRIT [1]: 33.83%
- HEMOGLOBIN [1]: 13.17 G/DL
- LEUKOCYTE COUNT [1]: 9.4 x10E3/uL
- MEAN CORPUSCULAR HEMOGLOBIN [1]: 23.8 pg
- MEAN CORPUSCULAR HEMOGLOBIN CONCENTRATION [1]: 38.93 G/DL
- MEAN CORPUSCULAR VOLUME [1]: 61.13 fL
- MONOCYTE [1]: 0%
- NEUTROPHIL [1]: 10.67%
- NUCLEATED RED BLOOD CELLS [1]: 0 /100WBC
- PLATELET COUNT [1]: 1168.67 x10E3/uL
- ALANINE AMINOTRANSFERASE [1]: 60.67 u/L
- ALBUMIN [1]: 4.17 G/DL
- ALKALINE PHOSPHATASE [1]: 318.33 u/L
- ASPARTATE AMINOTRANSFERASE [1]: 89.67 u/L
- BLOOD UREA NITROGEN [1]: 16 mg/dL
- CARBON DIOXIDE [1]: 26 mmol/L
- CHLORIDE [1]: 104.67 MEQ/L
- CHOLESTEROL [1]: 77.67 mg/dL
- CREATINE PHOSPHOKINASE [1]: 225.33 u/L
- CREATININE [1]: 0.14 mg/dL
- GLUCOSE [1]: 162 mg/dL
- LACTATE DEHYDROGENASE [1]: 134.67 u/L
- LIPASE [1]: 9 u/L
- PHOSPHORUS [1]: 10.23 mg/dL
- POTASSIUM [1]: 5.58 MEQ/L
- SODIUM [1]: 152 MEQ/L
- TOTAL BILIRUBIN [1]: 0.2 mg/dL
- TOTAL PROTEIN [1]: 6.03 G/DL
- URIC ACID [1]: 0.77 mg/dL
- ABSOLUTE BASOPHIL [2]: 0 CELLS/uL
- ABSOLUTE EOSINOPHIL [2]: 0 CELLS/uL
- ABSOLUTE LYMPHOCYTE [2]: 16294.67 CELLS/uL
- ABSOLUTE MONOCYTE [2]: 122.33 CELLS/uL
- ABSOLUTE SEGMENTED NEUTROPHIL [2]: 1316.33 CELLS/uL
- BASOPHIL [2]: 0%
- EOSINOPHIL [2]: 0%
- ERYTHROCYTE COUNT [2]: 5.5 x10E6/uL
- HEMATOCRIT [2]: 33.6%
- HEMOGLOBIN [2]: 13.2 G/DL
- LEUKOCYTE COUNT [2]: 17.73 x10E3/uL
- MEAN CORPUSCULAR HEMOGLOBIN [2]: 24 pg
- MEAN CORPUSCULAR HEMOGLOBIN CONCENTRATION [2]: 39.27 G/DL
- MEAN CORPUSCULAR VOLUME [2]: 61.13 fL
- MONOCYTE [2]: 0.67%
- NEUTROPHIL [2]: 7.33%
- NUCLEATED RED BLOOD CELLS [2]: 0 /100WBC
- PLATELET COUNT [2]: 1440 x10E3/uL
- ALANINE AMINOTRANSFERASE [2]: 50.67 u/L
- ALBUMIN [2]: 4.1 G/DL
- ALKALINE PHOSPHATASE [2]: 278.67 u/L
- ASPARTATE AMINOTRANSFERASE [2]: 78 u/L
- BLOOD UREA NITROGEN [2]: 12.33 mg/dL
- CARBON DIOXIDE [2]: 25 mmol/L
- CHLORIDE [2]: 100.33 MEQ/L
- CHOLESTEROL [2]: 73 mg/dL
- CREATINE PHOSPHOKINASE [2]: 460.33 u/L
- CREATININE [2]: 0.2 mg/dL
- GLUCOSE [2]: 161.33 mg/dL
- LACTATE DEHYDROGENASE [2]: 133.67 u/L
- LIPASE [2]: 10.67 u/L
- PHOSPHORUS [2]: 11.7 mg/dL
- POTASSIUM [2]: 6.15 MEQ/L
- SODIUM [2]: 140.17 MEQ/L
- TOTAL BILIRUBIN [2]: 0.17 mg/dL
- TOTAL PROTEIN [2]: 5.9 G/DL
- URIC ACID [2]: 1.73 mg/dL
- ABSOLUTE BASOPHIL [3]: 0 CELLS/uL
- ABSOLUTE EOSINOPHIL [3]: 0 CELLS/uL
- ABSOLUTE LYMPHOCYTE [3]: 12717.67 CELLS/uL
- ABSOLUTE MONOCYTE [3]: 34 CELLS/uL
- ABSOLUTE SEGMENTED NEUTROPHIL [3]: 981.67 CELLS/uL
- BASOPHIL [3]: 0%
- EOSINOPHIL [3]: 0%
- ERYTHROCYTE COUNT [3]: 5.35 x10E6/uL
- HEMATOCRIT [3]: 33.67%
- HEMOGLOBIN [3]: 13.33 G/DL
- LEUKOCYTE COUNT [3]: 13.73 x10E3/uL
- MEAN CORPUSCULAR HEMOGLOBIN [3]: 24.93 pg
- MEAN CORPUSCULAR HEMOGLOBIN CONCENTRATION [3]: 39.6 G/DL
- MEAN CORPUSCULAR VOLUME [3]: 62.9 fL
- MONOCYTE [3]: 0.33%
- NEUTROPHIL [3]: 7%
- NUCLEATED RED BLOOD CELLS [3]: 0 /100WBC
- PLATELET COUNT [3]: 1267.33 x10E3/uL
- ALANINE AMINOTRANSFERASE [3]: 63.67 u/L
- ALBUMIN [3]: 4.47 G/DL
- ALKALINE PHOSPHATASE [3]: 326 u/L
- ASPARTATE AMINOTRANSFERASE [3]: 93 u/L
- BLOOD UREA NITROGEN [3]: 15.33 mg/dL
- CARBON DIOXIDE [3]: 27 mmol/L
- CHLORIDE [3]: 102.67 MEQ/L
- CHOLESTEROL [3]: 74.33 mg/dL
- CREATINE PHOSPHOKINASE [3]: 321 u/L
- CREATININE [3]: 0.14 mg/dL
- GLUCOSE [3]: 145.33 mg/dL
- LACTATE DEHYDROGENASE [3]: 130.67 u/L
- LIPASE [3]: 10 u/L
- PHOSPHORUS [3]: 10.1 mg/dL
- POTASSIUM [3]: 6.03 MEQ/L
- SODIUM [3]: 151 MEQ/L
- TOTAL BILIRUBIN [3]: 0.2 mg/dL
- TOTAL PROTEIN [3]: 6.43 G/DL
- URIC ACID [3]: 0.73 mg/dL
